Test [1] has as its target human somatostatin receptor subtype 5 (Homo sapiens, UniProt P35346). In words: cAMP assay for SST5R (inhibition of cAMP via human SST5 receptor). To be noted: for Fold selectivity for SST5 vs SST2: SST5 over SST2, class symbols. (cAMP levels reflect the balance of adenylyl cyclase and phosphodiesterase activity.)
Test [2] addresses T1, human somatostatin receptor subtype 2 (Homo sapiens, UniProt P30874).
T1 construct: expressed in transfected cells
In words: cAMP assay for SST2R (inhibition of cAMP via human SST2 receptor). Format: cell-based. To be noted: Table B, read-out: SST2 potency. From the text:
cAMP Assay Protocol for SST2R:

Setting [3] is: read-out: SST5 potency, inhibition of cAMP via human SST5 receptor, Table B.

Read-outs that look alike come from different tables or passages of the source.

T1 sequence (P30874 whole entry): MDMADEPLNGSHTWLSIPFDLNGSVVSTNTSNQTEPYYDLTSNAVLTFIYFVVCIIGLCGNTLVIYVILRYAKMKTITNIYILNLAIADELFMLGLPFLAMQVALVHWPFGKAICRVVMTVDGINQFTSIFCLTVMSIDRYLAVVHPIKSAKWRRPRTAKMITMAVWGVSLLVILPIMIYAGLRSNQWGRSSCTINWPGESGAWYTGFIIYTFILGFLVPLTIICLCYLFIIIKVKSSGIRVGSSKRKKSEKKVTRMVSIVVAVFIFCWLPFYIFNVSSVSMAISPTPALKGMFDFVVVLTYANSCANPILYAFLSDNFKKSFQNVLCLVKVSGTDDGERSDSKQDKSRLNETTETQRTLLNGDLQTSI
Chain of human somatostatin receptor subtype 5 (P35346 whole entry): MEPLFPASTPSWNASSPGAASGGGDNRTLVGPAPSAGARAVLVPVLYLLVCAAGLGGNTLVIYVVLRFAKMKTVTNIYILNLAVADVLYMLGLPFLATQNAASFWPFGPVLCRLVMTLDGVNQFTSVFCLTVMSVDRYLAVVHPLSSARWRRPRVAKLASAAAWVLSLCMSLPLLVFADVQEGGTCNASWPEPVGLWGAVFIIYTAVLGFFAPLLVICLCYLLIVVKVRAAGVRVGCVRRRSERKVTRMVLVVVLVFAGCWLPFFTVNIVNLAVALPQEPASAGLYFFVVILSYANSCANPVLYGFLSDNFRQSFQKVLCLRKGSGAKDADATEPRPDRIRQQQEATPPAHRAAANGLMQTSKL

In the case of `Cc1cccc2nc(-c3cncc(-c4cc(F)cc(C#N)c4)c3N3CC[C@@](N)(CO)C3)[nH]c12` [Compound 2-135, 3-{4-[(3S)-3-amino-3-(hydroxymethyl)pyrrolidin-1-yl]-5-(4-methyl-1H-1,3-benzodiazol-2-yl)pyridin-3-yl}-5-fluorobenzonitrile], the EC50 was less than 10 nM in test [1], less than 10 nM in test [1] (setting [3]) and 10 to 100 nM in test [2]. Further, the “Fold selectivity for SST5 vs SST2” value in test [1] was “++ (++=100 to 499)”.
Turning to `Cc1cccc2nc(-c3cncc(-c4cc(F)c(F)c(C#N)c4)c3N3CC[C@H](N)C3)[nH]c12` [Compound 2-139, 5-{4-[(3S)-3-aminopyrrolidin-1-yl]-5-(4-methyl-1H-1,3-benzodiazol-2-yl)pyridin-3-yl}-2,3-difluorobenzonitrile], the EC50 is less than 10 nM in test [1], less than 10 nM in test [1] (setting [3]) and 10 to 100 nM in test [2]. Moreover, the “Fold selectivity for SST5 vs SST2” value in test [1] was “++ (++=100 to 499)”.
With `Cc1ccnc2nc(-c3cncc(-c4cc(F)c(F)c(C#N)c4)c3N3CCC(C)(N)C3)[nH]c12` (stereo not drawn) [Compound 2-140, 5-[4-(3-amino-3-methylpyrrolidin-1-yl)-5-{7-methyl-1H-imidazo[4,5-b]pyridin-2-yl}pyridin-3-yl]-2,3-difluorobenzonitrile], the EC50 in test [1] was less than 10 nM; in test [1] (setting [3]), less than 10 nM; in test [2], 10 to 100 nM. In addition, in test [1], the “Fold selectivity for SST5 vs SST2” value is given as “++ (++=100 to 499)”.
Take `Cc1cccc2nc(-c3cncc(-c4ccc(F)c(OC(F)(F)F)c4)c3N3CC[C@H](N)C3)[nH]c12` [Compound 2-141, (3S)-1-{3-[4-fluoro-3-(trifluoromethoxy)phenyl]-5-(4-methyl-1H-1,3-benzodiazol-2-yl)pyridin-4-yl}pyrrolidin-3-amine]: the results for the EC50 in test [1], in test [1] (setting [3]) and in test [2] were less than 10 nM, less than 10 nM and 100 to 1000 nM, respectively. The “Fold selectivity for SST5 vs SST2” value in test [1] is recorded as “++ (++=100 to 499)”.
As for `CCn1c(-c2cncc(-c3ccc(F)c(C#N)c3)c2N2CC[C@H](N)C2)nc2c(F)cccc21` [Compound 2-142, 5-{4-[(3S)-3-aminopyrrolidin-1-yl]-5-(1-ethyl-4-fluoro-1H-1,3-benzodiazol-2-yl)pyridin-3-yl}-2-fluorobenzonitrile], the EC50 was less than 10 nM in test [1], less than 10 nM in test [1] (setting [3]) and greater than 1000 nM in test [2]. Moreover, the “Fold selectivity for SST5 vs SST2” value in test [1] was “+++ (+++=≥500)”.
With `CCn1c(-c2cncc(-c3cccc(C#N)c3)c2N2CC[C@H](N)C2)nc2c(F)cccc21` [Compound 2-143, 3-{4-[(3S)-3-aminopyrrolidin-1-yl]-5-(1-ethyl-4-fluoro-1H-1,3-benzodiazol-2-yl)pyridin-3-yl}benzonitrile], the figures for the EC50 in test [1], in test [1] (setting [3]) and in test [2] were less than 10 nM, less than 10 nM and 100 to 1000 nM, respectively. In addition, the “Fold selectivity for SST5 vs SST2” value in test [1] is on record as “+++ (+++=≥500)”.
In the case of `CCn1c(-c2cncc(-c3cc(F)cc(C#N)c3)c2N2CC[C@H](N)C2)nc2c(F)cccc21` [Compound 2-144, 3-{4-[(3S)-3-aminopyrrolidin-1-yl]-5-(1-ethyl-4-fluoro-1H-1,3-benzodiazol-2-yl)pyridin-3-yl}-5-fluorobenzonitrile], the EC50 in test [1] is less than 10 nM; in test [1] (setting [3]), less than 10 nM; in test [2] it was greater than 1000 nM. In test [1], the “Fold selectivity for SST5 vs SST2” value was “+++ (+++=≥500)”.
In the case of `Cc1cccc(-c2cncc(-c3nc4cccc(C)c4[nH]3)c2N2CC[C@H](N)C2)c1` [Compound 2-146, (3S)-1-[3-(4-methyl-1H-1,3-benzodiazol-2-yl)-5-(3-methylphenyl)pyridin-4-yl]pyrrolidin-3-amine], the EC50 was less than 10 nM in test [1], less than 10 nM in test [1] (setting [3]) and 100 to 1000 nM in test [2]. Further, the “Fold selectivity for SST5 vs SST2” value in test [1] is given as “++ (++=100 to 499)”.
For `CC1(N)CCN(c2c(-c3ccc(F)c(C#N)c3)cncc2-c2nc3cccc(C#N)c3[nH]2)C1` (stereo not drawn) [Compound 2-147, 2-[4-(3-amino-3-methylpyrrolidin-1-yl)-5-(3-cyano-4-fluorophenyl)pyridin-3-yl]-1H-1,3-benzodiazole-4-carbonitrile], the figures for the EC50 in test [1], in test [1] (setting [3]) and in test [2] were less than 10 nM, less than 10 nM and 100 to 1000 nM, respectively. In addition, the “Fold selectivity for SST5 vs SST2” value in test [1] is listed as “+++ (+++=≥500)”.
Consider `CC1(N)CCN(c2c(-c3ccnc(C#N)c3)cncc2-c2nc3cccc(C(F)(F)F)c3[nH]2)C1` (stereo not drawn) [Compound 2-148, 4-(3-amino-3-methylpyrrolidin-1-yl)-5-[4-(trifluoromethyl)-1H-1,3-benzodiazol-2-yl]-[3,4′-bipyridine]-2′-carbonitrile], for which the values for the EC50 in test [1], in test [1] (setting [3]) and in test [2] were less than 10 nM, less than 10 nM and 100 to 1000 nM, respectively. For the same compound, the “Fold selectivity for SST5 vs SST2” value in test [1] is “+++ (+++=≥500)”.
On to `Cc1cncc2nc(-c3cncc(-c4ccc(F)c(C#N)c4)c3N3CCC(C)(N)C3)[nH]c12` (stereo not drawn) [Compound 2-149, 5-[4-(3-amino-3-methylpyrrolidin-1-yl)-5-{7-methyl-3H-imidazo[4,5-c]pyridin-2-yl}pyridin-3-yl]-2-fluorobenzonitrile], for which the EC50 is less than 10 nM in test [1], less than 10 nM in test [1] (setting [3]) and 100 to 1000 nM in test [2]. The “Fold selectivity for SST5 vs SST2” value in test [1] was “++ (++=100 to 499)”.
With `Cc1ccnc2[nH]c(-c3cncc(-c4cccc(C#N)c4)c3N3CC[C@](C)(N)C3)nc12` [Compound 2-155, 3-{4-[(3S)-3-amino-3-methylpyrrolidin-1-yl]-5-{7-methyl-1H-imidazo[4,5-b]pyridin-2-yl}pyridin-3-yl}benzonitrile], the EC50 in test [1] is less than 10 nM; in test [1] (setting [3]), less than 10 nM; in test [2], 100 to 1000 nM. For the same compound, the “Fold selectivity for SST5 vs SST2” value in test [1] is recorded as “++ (++=100 to 499)”.
Regarding `CC1(N)CCN(c2c(-c3ccnc(C#N)c3)cncc2-c2nc3cccc(Cl)c3[nH]2)C1` (stereo not drawn) [Compound 2-157, 4-(3-amino-3-methylpyrrolidin-1-yl)-5-(4-chloro-1H-1,3-benzodiazol-2-yl)-[3,4′-bipyridine]-2′-carbonitrile], the figures for the EC50 in test [1], in test [1] (setting [3]) and in test [2] were less than 10 nM, less than 10 nM and 10 to 100 nM, respectively. For the same compound, the “Fold selectivity for SST5 vs SST2” value in test [1] is “+++ (+++=≥500)”.
With `C[C@]1(N)CCN(c2c(-c3ccnc(C#N)c3)cncc2-c2nc3cccc(Cl)c3[nH]2)C1` [Compound 2-163, 4-[(3S)-3-amino-3-methylpyrrolidin-1-yl]-5-(4-chloro-1H-1,3-benzodiazol-2-yl)-[3,4′-bipyridine]-2′-carbonitrile], the EC50 in test [1] was less than 10 nM; in test [1] (setting [3]) it was less than 10 nM; in test [2] it was 100 to 1000 nM. In addition, the “Fold selectivity for SST5 vs SST2” value in test [1] is “+++ (+++=≥500)”.
On to `Cc1cc(F)cc2[nH]c(-c3cncc(-c4ccnc(C#N)c4)c3N3CC[C@](C)(N)C3)nc12` [Compound 2-166, 4-[(3S)-3-amino-3-methylpyrrolidin-1-yl]-5-(6-fluoro-4-methyl-1H-1,3-benzodiazol-2-yl)-[3,4′-bipyridine]-2′-carbonitrile], for which the EC50 is less than 10 nM in test [1], less than 10 nM in test [1] (setting [3]) and 100 to 1000 nM in test [2]. Further, in test [1], the “Fold selectivity for SST5 vs SST2” value is “+++ (+++=≥500)”.
In the case of `C[C@]1(N)CCN(c2c(-c3ccc(F)c(C#N)c3)cncc2-c2nc3ncccc3[nH]2)C1` [Compound 2-167, 5-{4-[(3S)-3-amino-3-methylpyrrolidin-1-yl]-5-{1H-imidazo[4,5-b]pyridin-2-yl}pyridin-3-yl}-2-fluorobenzonitrile], the EC50 in test [1] was less than 10 nM; in test [1] (setting [3]) it was less than 10 nM; in test [2] it was greater than 1000 nM. The “Fold selectivity for SST5 vs SST2” value in test [1] was “+++ (+++=≥500)”.
In the case of `Cc1cnc2nc(-c3cncc(-c4ccc(F)c(C#N)c4)c3N3CC[C@](C)(N)C3)[nH]c2c1` [Compound 2-170, 5-{4-[(3S)-3-amino-3-methylpyrrolidin-1-yl]-5-{6-methyl-1H-imidazo[4,5-b]pyridin-2-yl}pyridin-3-yl}-2-fluorobenzonitrile], the EC50 in test [1] is less than 10 nM; in test [1] (setting [3]), less than 10 nM; in test [2], greater than 1000 nM. Moreover, in test [1], the “Fold selectivity for SST5 vs SST2” value was “+++ (+++=≥500)”.
On to `COc1ccnc2nc(-c3cncc(-c4ccc(F)c(C#N)c4)c3N3CC[C@](C)(N)C3)[nH]c12` [Compound 2-172, 5-{4-[(3S)-3-amino-3-methylpyrrolidin-1-yl]-5-{7-methoxy-1H-imidazo[4,5-b]pyridin-2-yl}pyridin-3-yl}-2-fluorobenzonitrile], for which the EC50 in test [1] was less than 10 nM; in test [1] (setting [3]), less than 10 nM; in test [2], greater than 1000 nM. The “Fold selectivity for SST5 vs SST2” value in test [1] is given as “+++ (+++=≥500)”.
As to `C[C@]1(N)CCN(c2c(-c3ccnc(C#N)c3)cncc2-c2nc3cccc(C(F)(F)F)c3[nH]2)C1` [Compound 2-175, 4-[(3S)-3-amino-3-methylpyrrolidin-1-yl]-5-[7-(trifluoromethyl)-1H-1,3-benzodiazol-2-yl]-[3,4′-bipyridine]-2′-carbonitrile], the EC50 is less than 10 nM in test [1], less than 10 nM in test [1] (setting [3]) and 100 to 1000 nM in test [2]. The “Fold selectivity for SST5 vs SST2” value in test [1] is on record as “+++ (+++=≥500)”.
In the case of `C[C@]1(N)CCN(c2c(-c3cccc(C#N)c3)cncc2-c2nc3cccc(C#N)c3[nH]2)C1` [Compound 2-177, 2-{4-[(3 S)-3-amino-3-methylpyrrolidin-1-yl]-5-(3-cyanophenyl)pyridin-3-yl}-1H-1,3-benzodiazole-7-carbonitrile], the EC50 is less than 10 nM in test [1], less than 10 nM in test [1] (setting [3]) and 100 to 1000 nM in test [2]. Besides, the “Fold selectivity for SST5 vs SST2” value in test [1] is on record as “+++ (+++=≥500)”.
Regarding `Cc1ccnc2nc(-c3cncc(-c4cccc(Cl)c4)c3N3CC[C@](C)(N)C3)[nH]c12` [Compound 2-180, (3S)-1-[3-(3-chlorophenyl)-5-{7-methyl-1H-imidazo[4,5-b]pyridin-2-yl}pyridin-4-yl]-3-methylpyrrolidin-3-amine], the EC50 was less than 10 nM in test [1], less than 10 nM in test [1] (setting [3]) and 10 to 100 nM in test [2]. Further, in test [1], the “Fold selectivity for SST5 vs SST2” value was “++ (++=100 to 499)”.

(Values after patent US11608335B2, “Somatostatin modulators and uses thereof” (CRINETICS PHARMACEUTICALS, INC., priority 2018, dated 2023).)
